Measurements published in patent publication US20050058614A1, “Methods for the treatment of gray hair using cyclopentane(ene) heptan(en)oic acid amides” (Allergan, Inc., priority 2003, published 2005).

Columns and labels:
[1] = test system: gray hair; assay: conversion of gray hair to original pigment on oral bimatoprost in human subjects; assay type: in vivo
Text: A patient began taking bimatoprost as a tablet. […] A healthy person with normal blood pressure volunteers to take the medicine for the same observation as in Example 2 at the dose described above. Their hair condition is normal with no baldness. During the six month testing period, they collect in intervals the hair samples from regular daily combing. Before the testing and during the first month of testing, the hair samples collected have two types, namely completely dark brown or completely gray. At around 50 days into the testing period, a new type of hair, partly dark brown and partly gray, begins to appear in the hair samples; they represent about 3% of the gray hairs. In this subject, the gray hairs represent about 25% of their total hairs in the samples collected. It is noted that the dark brown part of the new type of hair is always associated with the lower part of the hair shaft. This is easily identifiable because the hair follicles are distinguishable at one end of hair shafts. The quality and thickness of the new type of hair is very similar to the other types of hairs of this subject. The ratio of length of the dark brown part to that of the gray part of the new type of hair varies from 1:5 to 4:1 in the samples collected during the five-month period. This varying ratio may reflect the stages of the growth cycle of each hair follicle examined. The observation was discontinued at the end of five months.

[2] = test system: eyelashes; conditions: Lumigan ophthalmic solution applied in the FDA approved manner; cited from earlier work
[3] = untoward effects during the observation period; assay type: in vivo, human; conditions: healthy person, oral, same dose as Example 1
Text: (§1) A healthy subject with normal blood pressure volunteers to take the medicine for observation on hair growth promoting activity at the same dose reported in Example 1. Before taking the medicine they have few hairs left in the frontoparietal area of the head. Three months after taking the medicine, they begin to note an increase of hair density in the affected area. […] The response to the medicine is more sensitive in areas with most recent hair loss. […] The observation is terminated at the end of six months.
A healthy person with normal blood pressure volunteers to take the medicine for the same observation as in Example 2 at the dose described above. Their hair condition is normal with no baldness. During the six month testing period, they collect in intervals the hair samples from regular daily combing. Before the testing and during the first month of testing, the hair samples collected have two types, namely completely dark brown or completely gray. At around 50 days into the testing period, a new type of hair, partly dark brown and partly gray, begins to appear in the hair samples; they represent about 3% of the gray hairs. In this subject, the gray hairs represent about 25% of their total hairs in the samples collected. It is noted that the dark brown part of the new type of hair is always associated with the lower part of the hair shaft. […]

[4] = test system: hair in the frontoparietal area of the head; assay: observation on hair growth promoting activity on oral bimatoprost; assay type: in vivo, human; conditions: healthy person
Text: as §1

untoward effects ([3]; observation discontinued at five months): No untoward effects were reported
untoward effects ([3]; six months observation): does not experience any untoward effects
SMILES: CCNC(=O)CCC/C=C\C[C@@H]1[C@@H](/C=C/[C@@H](O)CCc2ccccc2)[C@H](O)C[C@@H]1O [bimatoprost, cyclopentane N-ethyl heptanamide-5-cis-2-(3α-hydroxy-5-phenyl-1-trans-pentenyl)-3,5-dihydroxy, [1α,2β,3α,5α]]
time until new type of hair, partly dark brown and partly gray, appears in hair samples ([1]; healthy person, no baldness, oral, same dose as Example 1, hair samples from daily combing): around 50 days
new type of hair (partly dark brown, partly gray) as share of the gray hairs ([1]; healthy person, oral, same dose as Example 1, gray hairs about 25% of total hairs): about 3%
gray hairs turned into the original pigment ([1]; patient, oral tablet 2 x 100 mg per dose, 3 doses per day, four months): a significant portion of their gray hairs had gradually turned into the original pigment or dark brown color
growth of eyelashes [2]: effective to increase the growth of eyelashes
time until increase of hair density in the affected area is noted ([4]; few hairs in frontoparietal area, same dose as Example 1): Three
colour of the newly grown hairs in the affected area ([4]; same dose as Example 1): mostly dark brown
overall increase of the hair density in the affected area ([4]; same dose as Example 1, six months): very significant
hair cut frequency ([4]; same dose as Example 1, three to six months of the testing period): increase the hair cut frequency to once a month from once every two months
